In patent US20230105982A1, “INSULIN-INCRETIN CONJUGATES” (Merck Sharp & Dohme Corp., priority 2021, published 2023):

How the values were obtained:
Assay type in all cases: cell-based
minipig IR = test: Insulin Receptor Phosphorylation (pAkt) Assay, CHO cells overexpressing minipig IR; conditions: Table 7, read-out: Insulin Receptor pAK Assay EC50 Minipig
human GCGR = molecular target: T1, human GCGR (Homo sapiens, UniProt P47871); test: cAMP activity assay, cells expressing human GCGR; conditions: for GCGR/GLP1R ratio: ratio of hGCGR EC50 to hGLP1R EC50, Table 5
T1 construct: expressed in transfected cells
T1 sequence (P47871 26-477): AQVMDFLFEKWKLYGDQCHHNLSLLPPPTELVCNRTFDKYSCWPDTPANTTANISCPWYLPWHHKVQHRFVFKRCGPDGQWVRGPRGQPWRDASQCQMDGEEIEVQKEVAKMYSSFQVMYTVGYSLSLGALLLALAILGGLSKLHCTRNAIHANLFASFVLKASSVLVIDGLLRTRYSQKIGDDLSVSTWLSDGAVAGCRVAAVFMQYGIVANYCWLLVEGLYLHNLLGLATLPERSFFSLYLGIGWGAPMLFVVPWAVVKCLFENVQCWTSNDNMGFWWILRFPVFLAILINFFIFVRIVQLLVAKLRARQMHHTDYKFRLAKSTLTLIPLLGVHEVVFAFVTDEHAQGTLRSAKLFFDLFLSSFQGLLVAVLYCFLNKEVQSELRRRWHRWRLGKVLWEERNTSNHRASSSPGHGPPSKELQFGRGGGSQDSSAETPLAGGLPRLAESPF
Procedure: (§1) Activity of the incretin peptides or the conjugates at the Glucagon receptor (GCGR) and GLP-1 receptor (GLP1R) may be measured in a cAMP activity assay as follows.
(§2) Peptides are dissolved in 100% DMSO and serially diluted to generate 10 point titrations. The peptide solutions are then transferred into 384-well assay plates (150 nL/well). Assay ready frozen cells expressing human GLP1R or human GCGR are suspended in growth media consisting of DMEM medium (GIBCO), 10% FBS (GIBCO), 1×NEAA(GIBCO), 1×P/S (GIBCO), 10 μg/mL Blasticidin (GIBCO) and 200 μg/mL Hygromycin (GIBCO). […] The cell suspensions (15 μL) are then added to the assay plates containing the peptide solutions (30,000 cells/well for human GCGR; 10,000 cells/well for human GLP1R). The cells are incubated for one hour at room temperature in the dark.
(§3) Production of cAMP may be determined using HitHunter™ cAMPXS kits (DiscoverX) following the manufacturer's protocol. The plates are incubated for overnight at room temperature in the dark. Luminescence may be measured using an EnVision Multilabel plate reader (Perkin Elmer). Native GLP-1 and Glucagon (Bachem) may be used as control peptides. EC50 values may be calculated using uses a 4 parameter logistic fit based on the Levenberg-Marquardt algorithm.

human GLP1R = human GLP1R (Homo sapiens, UniProt P43220); test: cAMP activity assay, cells expressing human GLP1R; conditions: hGLP1R EC50
Sequence of human GLP1R (P43220 24-463): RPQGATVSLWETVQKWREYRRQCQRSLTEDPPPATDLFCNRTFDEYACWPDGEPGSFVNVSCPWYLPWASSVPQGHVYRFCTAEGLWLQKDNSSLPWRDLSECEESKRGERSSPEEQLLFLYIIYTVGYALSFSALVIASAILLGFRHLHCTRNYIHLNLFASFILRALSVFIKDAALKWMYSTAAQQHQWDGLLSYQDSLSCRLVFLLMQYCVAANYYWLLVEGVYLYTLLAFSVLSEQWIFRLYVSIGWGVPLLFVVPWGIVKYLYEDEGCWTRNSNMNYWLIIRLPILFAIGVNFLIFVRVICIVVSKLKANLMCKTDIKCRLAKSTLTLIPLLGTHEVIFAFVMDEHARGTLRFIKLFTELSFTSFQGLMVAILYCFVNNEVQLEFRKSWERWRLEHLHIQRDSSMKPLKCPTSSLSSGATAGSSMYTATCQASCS
Procedure: as §1, §2, §3

Insulin levemir [IL]
EC50 (minipig IR): 0.5 nM

CCCCCCCCCCCCCCCC(=O)N[C@@H](CCC(=O)N[C@@H](CCC(=O)NCCCC[C@H](NC(=O)[C@H](CC(=O)O)NC(=O)[C@H](CO)NC(=O)[C@@H](NC(=O)[C@H](Cc1ccccc1)NC(=O)[C@@H](NC(=O)CNC(=O)[C@H](CCC(N)=O)NC(=O)[C@@H](CO)NC(=O)[C@@H](N)Cc1c[nH]cn1)[C@@H](C)O)[C@@H](C)O)C(=O)N[C@@H](CO)C(=O)N[C@@H](CCCCN)C(=O)N[C@@H](Cc1ccc(O)cc1)C(=O)N[C@@H](CC(C)C)C(=O)N[C@@H](CC(=O)O)C(=O)NC(C)(C)C(=O)N[C@@H](CCCNC(=N)N)C(=O)N[C@@H](C)C(=O)N[C@@H](C)C(=O)N[C@@H](CCC(N)=O)C(=O)N[C@@H](CC(=O)O)C(=O)N[C@@H](Cc1ccccc1)C(=O)N[C@H](C(=O)N[C@@H](CCCCN=[N+]=[N-])C(=O)N[C@@H](Cc1c[nH]c2ccccc12)C(=O)N[C@@H](CC(C)C)C(=O)N[C@@H](CC(C)C)C(=O)N[C@@H](CC(=O)O)C(=O)N[C@H](C(N)=O)[C@@H](C)O)C(C)C)C(=O)O)C(=O)O [PEP7]
GCGR/GLP1R ratio (human GCGR): 0.2

CCCCCCCCCCCCCCCC(=O)N[C@@H](CCC(=O)N[C@@H](CCC(=O)NCCCC[C@H](NC(=O)[C@H](CC(=O)O)NC(=O)[C@H](CO)NC(=O)[C@@H](NC(=O)[C@H](Cc1ccccc1)NC(=O)[C@@H](NC(=O)CNC(=O)[C@H](CCC(N)=O)NC(=O)[C@@H](CO)NC(=O)[C@@H](N)Cc1c[nH]cn1)[C@@H](C)O)[C@@H](C)O)C(=O)N[C@@H](CO)C(=O)N[C@@H](CCCCN)C(=O)N[C@@H](Cc1ccc(O)cc1)C(=O)N[C@@H](CC(C)C)C(=O)N[C@@H](CC(=O)O)C(=O)N[C@@H](CCC(=O)O)C(=O)N[C@@H](CCCNC(=N)N)C(=O)N[C@@H](C)C(=O)N[C@@H](C)C(=O)N[C@@H](CCC(N)=O)C(=O)N[C@@H](CC(=O)O)C(=O)N[C@@H](Cc1ccccc1)C(=O)N[C@H](C(=O)N[C@@H](CCCCNC(=O)COCCOCCNC(=O)COCCOCCNC(=O)CCCCN=[N+]=[N-])C(=O)N[C@@H](Cc1c[nH]c2ccccc12)C(=O)N[C@@H](CC(C)C)C(=O)N[C@@H](CC(C)C)C(=O)N[C@@H](CC(=O)O)C(=O)N[C@H](C(N)=O)[C@@H](C)O)C(C)C)C(=O)O)C(=O)O [PEP15]
EC50 (human GCGR; hGCGR_EC50): 0.02 nM | GCGR/GLP1R ratio (human GCGR): 0.7 | EC50 (human GLP1R): 0.03 nM
